# Reference: patent US20160176867A1, “MODIFIED BET-PROTEIN-INHIBITING DIHYDROQUINOXALINONES AND DIHYDROPYRIDOPYRAZINONES” (BAYER PHARMA AKTIENGESELLSCHAFT, priority 2013, published 2016)
# pIC50: −log10 of the molar value.
# Legend:
# [1] = molecular target: T1, BRD4 bromo domain 1 [BRD4(1)] (Homo sapiens, UniProt O60885); assay: BRD4/acetylated peptide H4 binding assay (TR-FRET), BRD4 bromo domain 1; conditions: inhibition of BRD4(1)/Ac-H4 peptide interaction
# T1 construct: N-terminally His6-tagged BRD4(1) (amino acids 67-152); made in house; host or cells: E. coli
# How it was run: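 TR-FRET (665/620 nm ratio) measuring displacement of biotinylated tetra-acetylated H4 peptide from His6-BRD4(1) (aa 67-152, E. coli; typically 10 nM) at pH 7.5. Compound (11 concentrations, 0.1 nM–20 μM, duplicates) was preincubated 10 min at 22°C, then 1 h at 22°C and ≥3 h at 4°C; IC50 from 4-parameter fit normalized to DMSO and no-BRD4 controls.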
# [2] = molecular target: T2, BRD4 bromo domain 2 [BRD4(2)] (Homo sapiens, UniProt O60885); assay: BRD4/acetylated peptide H4 binding assay (TR-FRET), BRD4 bromo domain 2; conditions: inhibition of BRD4(2)/Ac-H4 peptide interaction
# T2 construct: N-terminally His6-tagged BRD4(2) (amino acids 357-445); made in house; host or cells: E. coli
# How it was run: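 IC50 comes from a 4-parameter fit over 0.1 nM–20 μM in duplicate, normalised to DMSO and no-protein controls. TR-FRET (Eu-streptavidin/anti-His-XL665) tracks His-tagged BRD4(2) 357-445 at 100 nM binding Ac-H4 peptide in HEPES pH 7.5 buffer. Incubation was 1 h at 22 °C, then at 4 °C ≥3 h up to overnight.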
SMILES,pIC50 [1],pIC50 [2]
"COc1ccc(Nc2ccc3c(n2)N(C2CCOCC2)[C@H](C)C(=O)N3C)cc1C(=O)N[C@H]1CC[C@H](N2CCN(CC3CC3)CC2)CC1 [Example 82, N-{trans-4-[4-(cyclo-propylmethyl)piperazin-1-yl]cyclohexyl}-5-{[(3R)-1,3-dimethyl-2-oxo-4-(tetrahydro-2H-pyran-4-yl)-1,2,3,4-tetrahydropyrido[2,3-b]pyrazin-6-yl]amino}-2-methoxybenzamide]",6.66,6.47
"COc1ccc(Nc2ccc3c(n2)N(C2CCOCC2)[C@H](C)C(=O)N3C)cc1C(=O)N1CCN(C)CC1 [Example 83, (3R)-6-({4-methoxy-3-[(4-methylpiperazin-1-yl)carbonyl]phenyl}-amino)-1,3-dimethyl-4-(tetrahydro-2H-pyran-4-yl)-3,4-dihydropyrido[2,3-b]pyrazin-2(1H)-one]",6.66,6.64
"C[C@@H]1C(=O)N(C)c2ccc(Nc3cccc(C(=O)NCCN4CCN(C)CC4)c3)nc2N1C1CCCCC1 [Example 84, 3-{[(3R)-4-cyclohexyl-1,3-dimethyl-2-oxo-1,2,3,4-tetrahydropyrido[2,3-b]pyrazin-6-yl]amino}-N-[2-(4-methlpiperazin-1-yl)ethyl]benzamide]",6.57,6.81
CC(C)N1CCN(C(=O)c2cccc(Nc3ccc4c(n3)N(C3CCCCC3)[C@H](C)C(=O)N4C)c2)CC1 [Example 85],6.50,6.72
"C[C@@H]1C(=O)N(C)c2ccc(Nc3cccc(C(=O)NC4CCC(O)CC4)c3)nc2N1C1CCCCC1 (stereo partly drawn) [Example 86, 3-{[(3R)-4-cyclohexyl-1,3-dimethyl-2-oxo-1,2,3,4-tetrahydropyrido[2,3-b]pyrazin-6-yl]amino}-N-(4-hydroxycyclohexyl)-benzamide]",6.49,6.90
COc1ccc(Nc2ccc3c(n2)N(C2CCOCC2)[C@H](C)C(=O)N3C)cc1C(=O)NC1CCC(N2CCC(F)(F)CC2)CC1 (stereo partly drawn) [Example 89],6.40,6.30
"COc1ccc(C(=O)N[C@H]2CC[C@@H](N3CCN(C4CC4)CC3)CC2)cc1Nc1ccc2c(n1)N(C1CCOCC1)[C@H](C)C(=O)N2C [Example 90, N-[cis-4-(4-cyclopropylpiperazin-1-yl)cyclohexyl]-3-{[(3R)-1,3-dimethyl-2-oxo-4-(tetrahydro-2H-pyran-4-yl)-1,2,3,4-tetrahydropyrido[2,3-b]pyrazin-6-yl]amino}-4-methoxybenzamide]",6.37,6.48
"COc1c(Nc2ccc3c(n2)N(C2CCOCC2)[C@H](C)C(=O)N3C)cccc1C(=O)N[C@H]1CC[C@H](N2CCN(CC3CC3)CC2)CC1 [Example 91, N-{trans-4-[4-(cyclo-propylmethyl)piperazin-1-yl]cyclohexyl}-3-{[(3R)-1,3-dimethyl-2-oxo-4-(tetrahydro-2H-pyran-4-yl)-1,2,3,4-tetrahydropyrido[2,3-b]pyrazin-6-yl]amino}-2-methoxybenzamide]",6.36,6.49
"COc1c(Nc2ccc3c(n2)N(C2CCOCC2)[C@H](C)C(=O)N3C)cccc1C(=O)N1CCN(C)CC1 [Example 92, (3R)-6-({2-methoxy-3-[(4-methylpiperazin-1-yl)carbonyl]phenyl}-amino)-1,3-dimethyl-4-(tetrahydro-2H-pyran-4-yl)-3,4-dihydropyrido[2,3-b]pyrazin-2(1H)-one]",6.34,6.24
"CC(C)N1c2nc(Nc3cccc(C(=O)NC4CCN(C)CC4)c3)ccc2N(C)C(=O)[C@H]1C [Example 94, 3-{[(3R)-4-isopropyl-1,3-dimethyl-2-oxo-1,2,3,4-tetrahydropyrido[2,3-b]pyrazin-6-yl]amino}-N-(1-methylpiperidin-4-yl)benzamide]",6.33,6.94
"C[C@@H]1C(=O)N(C)c2ccc(Nc3cccc(C(=O)NC4CCN(C)CC4)c3)nc2N1C1CCCCC1 [Example 95, 3-{[(3R)-4-cyclohexyl-1,3-dimethyl-2-oxo-1,2,3,4-tetrahydropyrido[2,3-b]pyrazin-6-yl]amino}-N-(1-methylpiperidin-4-yl)benzamide]",6.32,6.56
"C[C@@H]1C(=O)N(C)c2ccc(Nc3cccc(C(=O)NC4CCN(C)CC4)c3)nc2N1C1CCC(C)(C)CC1 [Example 96, 3-{[(3R)-4-(4,4-dimethylcyclohexyl)-1,3-dimethyl-2-oxo-1,2,3,4-tetrahydropyrido[2,3-b]pyrazin-6-yl]amino}-N-(1-methylpiperidin-4-yl)benzamide]",6.30,6.24
"CC(C)N1c2nc(Nc3cccc(C(=O)NCCN(C)C)c3)ccc2N(C)C(=O)[C@H]1C [Example 97, N-[2-(dimethylamino)ethyl]-3-{[(3R)-4-isopropyl-1,3-dimethyl-2-oxo-1,2,3,4-tetrahydropyrido[2,3-b]pyrazin-6-yl]amino}benzamide]",6.30,6.75
"C[C@@H]1C(=O)N(C)c2ccc(Nc3cccc(C(=O)N[C@H]4CC[C@H](N5CCN(CC6CC6)CC5)CC4)c3)nc2N1C1CCCCC1 [Example 99, 3-{[(3R)-4-cyclohexyl-1,3-dimethyl-2-oxo-1,2,3,4-tetrahydropyrido[2,3-b]pyrazin-6-yl]amino}-N-{trans-4-[4-(cyclopropyl-methyl)piperazin-1-yl]cyclohexyl}benzamide]",6.26,6.56
"C[C@@H]1C(=O)N(C)c2ccc(Nc3cccc(C(=O)NC4CCN(C)CC4)c3)nc2N1C1CCN(C(=O)OC(C)(C)C)CC1 [Example 100, tert-butyl 4-[(3R)-1,3-dimethyl-6-({3-[(1-methylpiperidin-4-yl)carbamoyl]phenyl}amino)-2-oxo-2,3-dihydropyrido[2,3-b]pyrazin-4(1H)-yl]piperidine-1-carboxylate]",6.26,6.34
"COCCN1c2nc(Nc3cccc(C(=O)N[C@H]4CC[C@H](N5CCN(CC6CC6)CC5)CC4)c3)ccc2N(C)C(=O)[C@H]1C [Example 101, N-{trans-4-[4-(cyclopropylmethyl)piperazin-1-yl]cyclohexyl}-3-{[(3R)-4-(2-methoxyethyl)-1,3-dimethyl-2-oxo-1,2,3,4-tetrahydropyrido-[2,3-b]pyrazin-6-yl]amino}benzamide]",6.21,6.71
"C[C@@H]1C(=O)N(C)c2ccc(Nc3cccc(C(=O)N[C@H]4CC[C@H](N5CCN(CC6CC6)CC5)CC4)c3)nc2N1C1CCN(C(=O)OC(C)(C)C)CC1 [Example 102, tert-butyl 4-[(3R)-6-{[3-({trans-4-[4-(cyclopropl-methyl)piperazin-1-yl]cyclohexyl}carbamoyl)phenyl]amino}-1,3-dimethyl-2-oxo-2,3-dihydropyrido[2,3-b]pyrazin-4(1H)-yl]piperidine-1-carboxylate]",6.10,6.16
"COc1c(Nc2ccc3c(n2)N(C2CCOCC2)[C@H](C)C(=O)N3C)cccc1C(=O)NC1CCN(C)CC1 [Example 103, 3-{[(3R)-1,3-dimethyl-2-oxo-4-(tetrahydro-2H-pyran-4-yl)-1,2,3,4-tetrahydropyrido[2,3-b]pyrazin-6-yl]amino}-2-methoxy-N-(1-melhylpiperidin-4-yl)benzamide]",6.09,6.29
"C[C@@H]1C(=O)N(C)c2ccc(Nc3cccc(C(=O)N(C)C)c3)cc2N1C1CCN(C(=O)OC(C)(C)C)CC1 [Example 105, tert-butyl 4-[(2R)-7-{[3-(dimethylcarbamoyl)phenyl]amino}-2,4-dimethyl-3-oxo-3,4-dihydroquinoxalin-1(2H)-yl]piperidine-1-carboxylate]",6.68,6.22
"C[C@@H]1C(=O)N(C)c2ccc(Nc3cccc(C(=O)N4CCN(C)CC4)c3)cc2N1C1CCOCC1 [Example 106, (3R)-1,3-dimethyl-6-({3-[(4-methylpiperazin-1-yl)carbonyl]phenyl}amino)-4-(tetrahydro-2H-pyran-4-yl)-3,4-dihydroquinoxalin-2(1H)-one]",6.45,6.09
"C[C@@H]1C(=O)N(C)c2ccc(Nc3cccc(C(=O)N(C)C)c3)cc2N1Cc1ccccc1 [Example 107, 3-{[(3R)-4-benzyl-1,3-dimethyl-2-oxo-1,2,3,4-tetrahydroquinoxalin-6-yl]amino}-N,N-dimethylbenzamide]",6.41,6.93
"C[C@@H]1C(=O)N(C)c2ccc(Nc3cccc(C(=O)N[C@H]4CC[C@H](N5CCN(CC6CC6)CC5)CC4)c3)cc2N1C1CCOCC1 [Example 108, N-{trans-4-[4-(cyclopropylmethyl)piperazin-1-yl]cyclohexyl}-3-{[(3R)-1,3-dimethyl-2-oxo-4-(tetrahydro-2H-pyran-4-yl)-1,2,3,4-tetrahydroquinoxalin-6-yl]amino}benzamide]",6.24,6.28
"C[C@@H]1C(=O)N(C)c2ccc(Nc3cccc(C(=O)NC4CCN(C)CC4)c3)cc2N1C1CCOCC1 [Example 109, 3-{[(3R)-1,3-dimethyl-2-oxo-4-(tetrahydro-2H-pyran-4-yl)-1,2,3,4-tetrahydroquinoxalin-6-yl]amino}-N-(1-methylpiperidin-4-yl)benzamide]",6.28,5.95
"CC1C(=O)N(C)c2ccc(N(C)c3cccc(S(=O)(=O)N(C)C)c3)cc2N1Cc1ccccc1 (stereo not drawn) [Example 110, 3-[(4-benzyl-1,3-dimethyl-2-oxo-1,2,3,4-tetrahydroquinoxalin-6-yl)(methyl)amino]-N,N-dimethylbenzenesulphon-amide]",5.89,6.49
